Experimental data taken from paper PMC5983770, “Preferential Inhibition of Wnt/β-Catenin Signaling by Novel Benzimidazole Compounds in Triple-Negative Breast Cancer” (International Journal of Molecular Sciences, 2018).
≈ marks a conversion by molar mass, not a printed value. Where two headings read alike, the source gives them in different places.

Columns and labels:
MDA-MB-468 cells = experiment: Annexin V/PI apoptosis assay (flow cytometry); assay type: cell-based, human; conditions: MDA-MB-468, 5 µM, 48 h
Procedure: (§1) Cells were seeded in 6-well tissue-culture treated plates (Corning) for overnight incubation. Culture media was replaced with growth media containing 1% FBS. Cells were treated with compounds for 48 h prior to harvest. Apoptosis/necrosis was detected by the FITC Annexin V Apoptosis Detection Kit I from Becton Dickinson (San Jose, CA, USA). Cells positive for Annexin V, propidium iodide (PI) or both were all designated as apoptotic.

MDA-MB-231 cells = experiment: Annexin V/PI apoptosis assay (flow cytometry); assay type: cell-based, human; conditions: 48 h; for apoptosis compared to DMSO / scatterplot quadrant Q1 (Annexin V/PI) / scatterplot quadrant Q3 (Annexin V/PI) / scatterplot quadrant Q2 (Annexin V/PI) / scatterplot quadrant Q4 (Annexin V/PI): MDA-MB-231, 5 µM; for percentage of MDA-MB-231 cells in the late apoptotic phase (% of total): 5 µM, vehicle control 8.1%; for scatterplot quadrant Q1 (Annexin V/PI): DMSO 1.1; for scatterplot quadrant Q3 (Annexin V/PI): DMSO 3.4; for scatterplot quadrant Q2 (Annexin V/PI): DMSO 8.1; for scatterplot quadrant Q4 (Annexin V/PI): DMSO 87.5
Procedure: as §1

[1] = tested on: SUM149, SUM159, MDA-MB-231 and MDA-MB-468 TNBC cell lines
Procedure: (§3) MCF10A and TNBC cells (2 × 10^3) were seeded with appropriate growth media containing 10% FBS in each well of tissue culture-treated 96-well black plates (Corning #3904) (Corning, NY, USA) 16 h prior to treatment. […] Cell viability was then evaluated with Cell Titer Glo (Promega, Madison, WI, USA) and luminescence was measured using a TOPCount NXT plate reader (PerkinElmer, Waltham, MA, USA). Curves were fit according to nonlinear regression and IC50 values were calculated using GraphPad Prism 7. Cells were treated in quadruplicates and experiments were performed three times.

[2] = cited from earlier work
pSTAT3 (Y705), STAT3 = experiment: Western blot of STAT3 phosphorylation and STAT3β isoform; assay type: cell-based; conditions: for expression of the pSTAT3β and total STAT3β isoform (lower band): MDA-MB-468 and MCF10A cells; for expression of the pSTAT3β and total STAT3β isoform (lower band) / STAT3 phosphorylation: 18 h; for STAT3 phosphorylation: TNBC and MCF10A cells, 2.5 or 5 µM
Procedure: (§2) Cells were seeded in 6-well tissue-culture treated plates for 48 h until 80% confluency prior to treatment. Whole cell extracts were prepared with Laemmli buffer (5% SDS, 10% glycerol, 0.5 M Tris-Cl) supplemented with protease and phosphatase inhibitors and equivalent amounts of proteins were separated by SDS-PAGE. Proteins were transferred to polyvinylidene difluoride (PVDF) membrane (Bio-Rad, Hercules, CA, USA) and blocked with 5% BSA in tris-buffered saline (TBS) supplemented with 0.1% Tween-20 for 1 h. Membranes were incubated with primary antibody overnight on a shaker at 4 °C. They were then washed and incubated with secondary antibody for 1 h. Bands were visualized with the Enhanced Chemiluminescence Detection reagents (PerkinElmer).

Wnt/β-catenin signaling [3] = experiment: Effect on Wnt/β-catenin signaling (Western blot); assay type: cell-based; conditions: as summarised in the abstract
Procedure: as §2

phosphodiesterase = tested on: phosphodiesterase; design: method as in PMID 22264761; conditions: screen of thirty 6-nitrobenzimidazoles; cited from earlier work
p4EBP1 (mTOR signaling) [4] = experiment: Western blot of 4EBP1 phosphorylation (mTOR signaling) in TNBC cell lines; assay type: cell-based, human; conditions: for phosphorylation of 4EBP1: both TNBC cell lines, 18 h
Procedure: as §2

Notch signaling (Hes1) = experiment: Western blot of Notch signaling (Hes1); assay type: cell-based; conditions: as summarised in the abstract
Procedure: as §2

Wnt/β-catenin signaling [5] = conditions: cited from earlier work
[6] = tested on: SUM149, SUM159, MDA-MB-231 and MDA-MB-468 TNBC cell lines; experiment: In vitro cytotoxicity (Cell Titer Glo cell viability); conditions: for selective cytotoxicity against TNBC cell lines compared to MCF10A cells: TNBC cell lines versus MCF10A cells; for IC50: Homo sapiens, 72 h, read-out: IC50 values for TNBC cell lines (cell viability)
Procedure: as §3

[7] = tested on: active (non-phosphorylated) β-catenin; experiment: Western blot of active β-catenin after cytoplasmic-nuclear fractionation; assay type: cell-based, human; conditions: 5 µM, 18 h; for nuclear active β-catenin expression (Western blot): TNBC cells
Procedure: as §2
Cells were lysed using the CERI and CERII reagents of the cytoplasmic-nuclear extraction kit (ThermoFisher), to obtain cytoplasmic fractions following treatment. Nuclear fractions were isolated by using 1× Laemmli buffer and sonication for a few seconds. Membrane was incubated overnight with active β-catenin (MilliporeSigma, Burlington, MA, USA), lamin A/C and tubulin antibodies.

phosphorylated LRP6 [8] = experiment: Western blot of phosphorylated LRP6 in MCF10A cells; assay type: cell-based; conditions: 2.5 or 5 µM, 18 h
Procedure: as §2

p4EBP1 (mTOR signaling) [9] = experiment: Western blot of 4EBP1 phosphorylation (mTOR signaling) in MCF10A cells; assay type: cell-based; conditions: 18 h
Procedure: as §2

phosphorylated LRP6 [10] = experiment: Western blot of phosphorylated LRP6 in TNBC cell lines; assay type: cell-based, human; conditions: both TNBC cell lines (MDA-MB-231, MDA-MB-468), 18 h
Procedure: as §2

active β-catenin = experiment: Immunocytochemistry of active β-catenin; assay type: cell-based, human; conditions: MDA-MB-231 and MDA-MB-468 cells, 5 µM, 18 h
Procedure: Cells were seeded on coverslips for 48 h prior to treatment with DMSO and SR compounds for 18 h. Cells were washed with PBS, fixed with 4% paraformaldehyde for 20 min and permeabilized with 0.5% Triton X-100 for 20 min. Following blocking with 3% BSA for 30 min, cells were incubated overnight with active β-catenin antibody (MilliporeSigma) at 4 °C. Cells were incubated with Alexa 488 goat anti-mouse secondary antibody (1:1000) at room temperature for 1 h. To counterstain, cells were incubated with 1:5000 Hoechst 33342 for 20 min. […] Images were obtained at 20× magnification.

cyclin D1 and survivin [11] = experiment: Western blot of cyclin D1 and survivin in TNBC cells; assay type: cell-based, human; conditions: 2.5 and 5 µM, 18 h
Procedure: as §2

[12] = tested on: noncancerous MCF10A cells; experiment: In vitro cytotoxicity (Cell Titer Glo cell viability); assay type: cell-based; conditions: Homo sapiens, MCF-10A; 0–5 µM, 72 h
Procedure: as §3

cyclin D1 and survivin [13] = experiment: Western blot of cyclin D1 and survivin in MCF10A cells; assay type: cell-based; conditions: 2.5 µM, 18 h, compared with niclosamide
Procedure: as §2

[14] = pH 7.4; introduction, no reference given; cited from earlier work
[15] = rat liver microsomes; introduction, no reference given; cited from earlier work
[16] = design: method as in PMID 20194742; conditions: cited from earlier work

2-(5-Chloro-6-fluoro-1H-benzo[d]imidazol-2-yl)-4-fluorophenol [SRI35361]
apoptosis compared to DMSO (MDA-MB-468 cells): did not induce significantly more apoptosis | apoptosis compared to DMSO (MDA-MB-231 cells): did not induce significantly more apoptosis | selective cytotoxicity against TNBC cell lines compared to MCF10A cells [1]: not selectively cytotoxic

C=CCN1CC(=O)N2[C@@H](Cc3ccc(OP(=O)([O-])[O-])cc3)C(=O)N(Cc3cccc4cn(C)nc34)C[C@@H]2N1C(=O)NCc1ccccc1.[Na+].[Na+] [CWP232228]
blood concentration ([2]; IV, 200 mg/kg, for 7 h): 0.8 µg/mL | toxicity in animals [2]: minimal toxicity and no obvious clinical signs

O=[N+]([O-])c1ccc2nc(-c3cc(Cl)ccc3O)[nH]c2c1 [SRI32529]
effect on STAT3 signaling (pSTAT3 (Y705), STAT3; as summarised in the abstract): mitigated | effect on Wnt/β-catenin signaling (Wnt/β-catenin signaling [3]): inhibited Wnt/β-catenin signaling | outcome of screen for phosphodiesterase inhibitors (phosphodiesterase): not selected as one of the effective inhibitors | effect on mTOR signaling (p4EBP1 (mTOR signaling) [4]; as summarised in the abstract): mitigated | effect on Notch signaling (Notch signaling (Hes1)): mitigated | potency in inhibiting Wnt/β-catenin signaling relative to SRI33576 (Wnt/β-catenin signaling [5]): less potency | selective cytotoxicity against TNBC cell lines compared to MCF10A cells [6]: not selectively cytotoxic

Oc1ccc(Cl)cc1-c1nc2ccc(C(F)(F)F)cc2[nH]1 [SRI33576]
apoptosis compared to DMSO (MDA-MB-468 cells): induced significantly more apoptosis | percentage of MDA-MB-231 cells in the late apoptotic phase (% of total) (MDA-MB-231 cells): 24% | apoptosis compared to DMSO (MDA-MB-231 cells): induced significantly more apoptosis | scatterplot quadrant Q1 (Annexin V/PI) (MDA-MB-231 cells): 10.7 | scatterplot quadrant Q3 (Annexin V/PI) (MDA-MB-231 cells): 11.1 | scatterplot quadrant Q2 (Annexin V/PI) (MDA-MB-231 cells): 24.0 | scatterplot quadrant Q4 (Annexin V/PI) (MDA-MB-231 cells): 54.3 | expression of the pSTAT3β and total STAT3β isoform (lower band) (pSTAT3 (Y705), STAT3): not | STAT3 phosphorylation (pSTAT3 (Y705), STAT3): noticeably less of an effect | nuclear active β-catenin expression (Western blot) [7]: decreased nuclear active β-catenin expression | phosphorylated LRP6 (phosphorylated LRP6 [8]): not | phosphorylation of 4EBP1 (p4EBP1 (mTOR signaling) [9]; 5 µM): did not yield such a change | phosphorylation of 4EBP1 (p4EBP1 (mTOR signaling) [4]; 5 µM): inhibited phosphorylation of 4EBP1 | phosphorylated LRP6 (phosphorylated LRP6 [10]; 5 µM): decreased phosphorylated LRP6 | nuclear active β-catenin expression (immunocytochemistry) (active β-catenin): a decrease in nuclear active β-catenin expression | expression of cyclin D1 and survivin (cyclin D1 and survivin [11]): decreased expression | IC50 [12]: 5 µM | inhibition of Wnt/β-catenin signaling (Wnt/β-catenin signaling [5]; colorectal cancer cells, decreasing cytosolic axin2 and β-catenin and overall c-myc, survivin and cyclin D1): inhibit Wnt/β-catenin signaling | IC50 [6]: 1.9 to 3.2 µM

Oc1ccc(F)cc1-c1nc2c(Cl)cc(Cl)cc2[nH]1 [SRI35357, 2-(5,7-Dichloro-3H-benzo[d]imidazol-2-yl)-4-fluorophenol]
selective cytotoxicity against TNBC cell lines compared to MCF10A cells [6]: not selectively cytotoxic

Oc1ccc(Cl)cc1-c1nc2cc(Cl)c(Cl)cc2[nH]1 [SRI35889, 4-Chloro-2-(5,6-dichloro-1H-benzo[d]imidazol-2-yl)phenol]
apoptosis compared to DMSO (MDA-MB-468 cells): induced significantly more apoptosis | percentage of MDA-MB-231 cells in the late apoptotic phase (% of total) (MDA-MB-231 cells): 26.5% | apoptosis compared to DMSO (MDA-MB-231 cells): induced significantly more apoptosis | scatterplot quadrant Q1 (Annexin V/PI) (MDA-MB-231 cells): 15.1 | scatterplot quadrant Q3 (Annexin V/PI) (MDA-MB-231 cells): 11.0 | scatterplot quadrant Q2 (Annexin V/PI) (MDA-MB-231 cells): 26.5 | scatterplot quadrant Q4 (Annexin V/PI) (MDA-MB-231 cells): 47.4 | expression of the pSTAT3β and total STAT3β isoform (lower band) (pSTAT3 (Y705), STAT3): not | STAT3 phosphorylation (pSTAT3 (Y705), STAT3): noticeably less of an effect | cytoplasmic β-catenin (Western blot) ([7]; MDA-MB-468 cells): decreased cytoplasmic β-catenin | nuclear active β-catenin expression (Western blot) [7]: decreased nuclear active β-catenin expression | phosphorylated LRP6 (phosphorylated LRP6 [8]): not | phosphorylation of 4EBP1 (p4EBP1 (mTOR signaling) [9]; 2.5 µM, compared with TNBC cell lines): less of a change | phosphorylation of 4EBP1 (p4EBP1 (mTOR signaling) [4]; 2.5 and 5 µM): inhibited 4EBP1 phosphorylation | phosphorylated LRP6 (phosphorylated LRP6 [10]; 2.5 and 5 µM): decreased phosphorylated LRP6 | nuclear active β-catenin expression (immunocytochemistry) (active β-catenin): a decrease in nuclear active β-catenin expression | cyclin D1 or survivin expression (cyclin D1 and survivin [13]): did not affect cyclin D1 or survivin expression as much as niclosamide | expression of cyclin D1 and survivin (cyclin D1 and survivin [11]): decreased expression | IC50 [12]: 5.4 µM | effect on Notch signaling (Notch signaling (Hes1)): not affecting | IC50 [6]: 1.1 to 2.4 µM

O=C(Nc1ccc([N+](=O)[O-])cc1Cl)c1cc(Cl)ccc1O [niclosamide, reference compound]
percentage of MDA-MB-231 cells in the late apoptotic phase (% of total) (MDA-MB-231 cells): 29.5% | scatterplot quadrant Q1 (Annexin V/PI) (MDA-MB-231 cells): 6.09 | scatterplot quadrant Q3 (Annexin V/PI) (MDA-MB-231 cells): 10.5 | scatterplot quadrant Q2 (Annexin V/PI) (MDA-MB-231 cells): 29.5 | scatterplot quadrant Q4 (Annexin V/PI) (MDA-MB-231 cells): 53.9 | solubility [14]: 1.6 µM (≈ 0.523 µg/mL) | expression of the pSTAT3β and total STAT3β isoform (lower band) (pSTAT3 (Y705), STAT3): markedly decreased | STAT3 phosphorylation (pSTAT3 (Y705), STAT3): downregulated STAT3 phosphorylation | metabolic stability t1/2 [15]: 29 min | phosphorylated LRP6 (phosphorylated LRP6 [8]): decreased phosphorylated LRP6 | IC50 [12]: 1 µM | IC50 [6]: 0.3 to 1 µM

B1: Mesd: an LRP6 antagonist (protein, UniProt Q14696 34-234, looked up)
LRP chaperone MESD: AEGSPGTPDESTPPPRKKKKDIRDYNDADMARLLEQWEKDDDIEEGDLPEHKRPSAPVDFSKIDPSKPESILKMTKKGKTLMMFVTVSGSPTEKETEEITSLWQGSLFNANYDVQRFIVGSDRAIFMLRDGSYAWEIKDFLVGQDRCADVTLEGQVYPGKGGGSKEKNKTKQDKGKKKKEGDLKSRSSKEENRAGNKREDL
time of highest blood concentration ([16]; mice dosed with 5, 10, 20 mg/kg): 2 h | bioavailability ([16]; mice): about 60%
